In general, Kb refers to the equilibrium dissociation constant of an antagonist, usually derived from a functional assay. In general, inhibition refers to the drop in the measured response relative to a control, in per cent.

The values that follow come from US5171882A, “Leukotriene antagonists” (Eli Lilly and Company, priority 1990, dated 1992).

Like-named read-outs stand apart in the source and are kept apart here.

One test concerns the target T1, LTD4 receptors (Cavia porcellus, UniProt Q2NNR5).
T1 construct: A section of terminal ileum was removed, the lumen cleaned, and the tissue divided into 2.5 cm segments; from tissue; host or cells: ileum and trachea of guinea pig (ileum: male Hartley)
T1 sequence (Q2NNR5 1-340): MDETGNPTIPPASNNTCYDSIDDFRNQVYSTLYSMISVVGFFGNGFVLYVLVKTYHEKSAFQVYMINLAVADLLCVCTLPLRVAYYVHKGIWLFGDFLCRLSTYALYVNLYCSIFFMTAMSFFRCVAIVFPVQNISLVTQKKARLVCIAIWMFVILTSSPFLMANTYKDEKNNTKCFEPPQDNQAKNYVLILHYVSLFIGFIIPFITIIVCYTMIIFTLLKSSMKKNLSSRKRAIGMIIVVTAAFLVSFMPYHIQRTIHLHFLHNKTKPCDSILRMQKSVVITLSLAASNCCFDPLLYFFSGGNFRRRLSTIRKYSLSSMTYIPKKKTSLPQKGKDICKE
Nature of the test: Antagonism of LTD4 (guinea pig ileum and trachea, pA2). The note with it: *Estimated; negative log of KB; antagonist 30 minute incubation. On the procedure: Male, Hartley guinea pigs weighing 200-450 grams were killed by decapitation. A section of terminal ileum was removed, the lumen cleaned, and the tissue divided into 2.5 cm segments. The ilea were mounted in 10 ml tissue baths containing Krebs-bicarbonate solution of the following composition in mmoles/liter: KCl, 4.6; CaCl2 ·2H2 O, 1.2; KH2 PO4, 1.2; MgSO4 ·7H2O, 1.2; NaCl, 118.2; NaHCO3, 24.8; and dextrose, 10.0. The bath fluid was maintained at 37° C. and aerated with 95 percent oxygen and 5 percent CO2 In addition, the buffer contained 1×10^-6 M atropine to reduce ileal spontaneous activity. Isometric measurements were made with a Grass FT03C. force-displacement transducer and recorded on a Grass polygraph as change in grams of force. A passive force of 0.5 g was applied to the tissues. After an appropriate equilibration period, single submaximal control responses to pure LTD4 were obtained. Following a five minute exposure of the ileum to an experimental drug, the control concentration of LTD4 was added to the tissue bath. The response of the ileum to LTD4 in the presence of the drug was compared to the response in the absence of the drug.
A more detailed analysis of LTD4 antagonism was then made. In these experiments, cumulative concentration-response curves were obtained to LTD4 in guinea pig ileum and trachea. This was followed by a 30 minute incubation with various concentrations of the experimental drug. The concentration response curve to LTD4 was then repeated in the presence of the antagonist. Only one concentration of antagonist was used on a single tissue. KB values were calculated by the method of Furchgott [Ann. N.Y. Acad. Sci., 139, 553 (1967)] using the following equation. [formula]
Dose ratio refers to the concentration of agonist required to elicit 50 percent of the maximal response ED50) in the presence of the antagonist divided by the ED50 in the absence of the antagonist.

For test [1], the system named is LTB4 induced cell aggregation (neutrophils). Nature of the test: LTB4 Induced Aggregation Assay (neutrophils). Type of test: cell-based, guinea pig. Particulars: Cavia porcellus, Neutrophil; for inhibition at 1 µM: drug concentration 10^-6 M; for inhibition at 0.1 µM: drug concentration 10^-7 M; for inhibition at 10 µM: drug concentration 10^-5 M. On the procedure: Neutrophils were elicited by intraperitoneally injecting 20 ml of Dulbecco's calcium and magnesium deficient phosphate buffered saline (PBS) containing 2% oyster glycogen into each of two male Hartley guinea pigs. Eighteen hours later, cells accumulating in the peritoneal cavity were harvested by washing the peritoneum with approximately 100 ml of PBS containing 10 units/ml of heparin. The cells were centrifuged at 200 g for 8 min. and the supernatant fluid discarded. Erythrocytes present in the pellet were lyzed by vigorous agitation of the cells in 9 ml of ice-cold distilled water for approximately 30 seconds. Physiological osmolarity was restored by adding 1.5 ml of 0.6 M KCl. Twelve milliliters of PBS were added and the resuspended cells centrifuged at 200 g for 8 min. at 4°. The pellet was resuspended in 5 ml PBS. The cell concentration was determined and additional buffer added to make the concentration […]; cells per ml.
The aggregation assay was carried out by measuring the amount of LTB4 induced cell aggregation with a Payton single channel aggregometer, model 300B. The apparatus was calibrated by placing a cuvette containing the cell suspension in it and adjusting the zero knob so that the recorder pen rested at 1 mV. A cuvette containing 20% less cells was then inserted into the aggregometer and the output knob adjusted so that the recorder pen rested at 9 mV. With these settings an 8 mV change causes the recorder pen to move 200 mm. When conducting an assay, 0.5 ml of cell suspension (5×10^6 cells) was added to each cuvette. Five microliters of a solution of test compound were then added. Most compounds were initially dissolved in DMSO at 1×10^-2 M and then diluted appropriately with PBS so that the test compound concentration was 1×10^-5 to 1×10^-7 M and the test DMSO concentration was 0.1% or less. A few of the more water insoluble compounds were first dissolved in DMSO at 1 to 6×10^-3 M and then diluted appropriately with PBS. The test concentration of DMSO was never higher than 1%. After a 2 minute equilibration period of cells and test compound, 5 μl of a solution containing CaCl2 (100 mM) and MgCl2 (50 mM) were added. One minute later, 5 μ l of PBS containing LTB4 (3×10^-7 M) were added. The change occurring in the amount of light transmitted during the subsequent minute was measured. […] During a typical experiment, several measurements of the amount of aggregation induced by LTB4 were made and an average value determined. The effect of a test compound on this aggregation was determined by the following formula: [formula]

Test [2] addresses T2, specific receptor on the membrane of human neutrophils (leukotriene B4) (Homo sapiens, UniProt Q15722).
T2 construct: Freshly-prepared buffy coat layers from two individuals were obtained from a local blood donor center; endogenous in cells; host or cells: intact human peripheral blood neutrophils from buffy coats of two donors
As to the kind of experiment: Inhibition of Binding of ^3 H-LTB4 to Peripheral Human Neutrophils. The note with it: for inhibition at 10 µM / inhibition at 1 µM / inhibition at 0.1 µM: read-out: LTB4 Binding Inhibition; for inhibition at 0.1 µM: drug concentration 10^-7 M. The method, then:
Cells used in the assay were isolated by standard techniques of centrifugation on Ficoll-Hypaque, dextran 70 sedimentation and hypotonic lysis. The following procedure was used. Freshly-prepared buffy coat layers from two individuals were obtained from a local blood donor center. The cells were mixed and diluted to 484 ml with phosphate buffered saline containing heparin (10 units/ml) and heat-inactivated calf serum (5%). This was divided into 20 ml aliquots and the aliquots layered on top of Ficoll-Paque (12 ml). The material was then centrifuged at 500 g for 40 minutes at room temperature. The resulting upper layer of platelets and mononuclear cells was discarded. The lower layer containing erythrocytes and neutrophils was retained. Buffer was added (1 ml per 4 ml of lower layer) and the suspension mixed. For each milliliter of this mixture, 0.33 ml of 6% Macrodex was added. After stirring, the cells were allowed to sediment for 1 hour at 37° C. The resulting erythrocyte pellet was discarded and the neutrophil enriched supernatant fluid centrifuged at 500 g for 10 minutes at 4° C. Erythrocytes still present in this cell pellet were lysed by incubating the cells with 5-8 ml ice-cold distilled water for 30-45 seconds. Subsequently, the volume was made up to 50 ml by addition of ice-cold buffer and the cells resuspended. The suspension was then centrifuged at 300 g for 10 minutes at 4° C. The cells were finally resuspended at a cell density of 2×10^7 cells/ml in the assay buffer This buffer consisted of Hanks' balanced salt solution and 0.1% ovalbumin (pH 7.3).
The amount of bound ^3 H-LTB4 was then measured and compared with the amount bound in the absence of test compound. The assay was carried out in microcentrifuge tubes by adding first 10 μl test compound dissolved in DMSO, followed by adding 20 μl ^3 H-LTB4 diluted in assay buffer, and finally adding 500 μl of the cell suspension. At the end of the 10 minutes incubation, 300 μl of a mixture of dibutyl and dinonyl phthalate (7:2) were added and the tubes centrifuged for 2 minutes in a microcentrifuge. The radioactivity bound to the cell pellet was measured by scintillation spectroscopy. Appropriate corrections for nonspecific bonding of ^3 H-LTB4 were made.

Where [3] appears, read: drug concentration 10^-5 M, 0.1-0.2 nM ^3 H-LTB4, 10 minutes at 4° C.
[4] abbreviates: drug concentration 10^-6 M, 0.1-0.2 nM ^3 H-LTB4, 10 minutes at 4° C.
[5] abbreviates: 0.1-0.2 nM ^3 H-LTB4, 10 minutes at 4° C.

T2 sequence (Q15722 whole entry): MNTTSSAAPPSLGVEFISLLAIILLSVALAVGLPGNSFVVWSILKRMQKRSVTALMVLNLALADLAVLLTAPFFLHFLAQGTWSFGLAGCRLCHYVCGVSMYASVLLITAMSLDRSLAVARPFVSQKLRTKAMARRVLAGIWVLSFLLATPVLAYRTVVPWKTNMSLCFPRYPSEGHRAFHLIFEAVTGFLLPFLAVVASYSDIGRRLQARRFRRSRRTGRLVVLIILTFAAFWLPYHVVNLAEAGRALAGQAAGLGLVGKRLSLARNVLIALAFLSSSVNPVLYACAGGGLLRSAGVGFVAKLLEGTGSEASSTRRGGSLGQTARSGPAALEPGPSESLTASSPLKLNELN

Consider `CCCCCCCCCCOc1ccc(C(=O)c2cccc(-c3nnn[nH]3)c2)cc1CCC(=O)O` [Example 29, 2-(Decyloxy)-5-[3-(1H-tetrazol-5-yl)benzoyl]benzenepropanoic acid], for which, at LTD4 receptors, the Kb is 955 nM. In addition, the results for the inhibition at 1 µM in test [1] and in test [2] (setting [4]) were 72% and 71%, respectively. Also, the inhibition at 0.1 µM in test [1] turned out to be 14%; in test [2] (setting [5]), 11%. Further, the inhibition at 10 µM in test [2] (setting [3]) came out at 98%.

Consider `CCCCCCOc1ccc(C(O)c2cccc(C(=O)O)c2)cc1CC(=O)O` (stereo not drawn) [Example 48, 5-[(3--Carboxyphenyl)hydroxymethyl]-2-(hexyloxy)benzeneacetic acid], for which, on LTD4 receptors, the antagonist dissociation constant (Kb) was 7940 nM. Besides, the inhibition at 10 µM in test [2] (setting [3]) worked out at 10%. In test [2] (setting [4]), the inhibition at 1 µM is -10%.

As for `CCCCCCCCCCOc1ccc(C(=O)c2ccccc2CC(=O)O)cc1CCC(=O)O` [Example 33, 5-[2-(Carboxymethyl)benzoyl]-2-(decyloxy)benzenepropanoic acid], the Kb at LTD4 receptors was 1150 nM. The inhibition at 1 µM came out at 94% in test [1] and 79% in test [2] (setting [4]). In addition, the values for the inhibition at 0.1 µM in test [1] and in test [2] (setting [5]) were 45% and 17%, respectively. In addition, the inhibition at 10 µM in test [2] amounted to 100%.

For the compound `CCCCCCCCCCOc1ccc(C(=O)c2ccccc2C(=O)O)cc1CC(=O)O` [Example 20, 5-(2-Carboxybenzoyl)-2-(decyloxy)benzeneacetic acid], at LTD4 receptors, the antagonist equilibrium constant (Kb) was 1000 nM. Further, in test [1], the inhibition at 1 µM worked out at 78% and the inhibition at 0.1 µM worked out at 32%. Besides, the inhibition at 10 µM in test [2] (setting [3]) was 71%. Moreover, in test [2] (setting [4]), the “LTB4 Binding Inhibition” value is given as 35 percent inhibition.

Take `CCCCCCCCCCOc1ccc(Oc2cccc(C(=O)O)c2)cc1CCC(=O)O` [Example 56, 5-(3-Carboxyphenoxy)-2-(decyloxy)benzenepropanoic acid]: the Kb at LTD4 receptors was 479 nM. In addition, the inhibition at 10 µM in test [2] (setting [3]) was determined as 88%. Further, in test [2] (setting [4]), the inhibition at 1 µM was 41%.

Regarding `CCCCCCCCCCOc1ccc(C(O)c2cccc(C(=O)O)c2)cc1CC(=O)O` (stereo not drawn) [Example 45, 5-[(3--Carboxyphenyl)hydroxymethyl]-2-(decyloxy)benzeneacetic acid], the antagonist equilibrium constant (Kb) at LTD4 receptors was 2000 nM. Further, the inhibition at 10 µM in test [1] amounted to 77%; in test [2] (setting [3]) it was 78%. The inhibition at 1 µM in test [1] came to 11%; in test [2] (setting [4]) it was 19%.

Turning to `CCCCCCCCCCOc1ccc(C(=O)c2cccc(C(=O)O)c2)cc1Cc1nnn[nH]1` [Example 3, 3-[4-(Decyloxy)-3-(1-tetrazol-5-ylmethyl]benzoyl]benzoic acid], the Kb on LTD4 receptors was 501 nM. In addition, the inhibition at 1 µM in test [1] turned out to be 84%; in test [2] (setting [4]), 26%. Besides, in test [1], the inhibition at 0.1 µM was 2%. For the same compound, the inhibition at 10 µM in test [2] (setting [3]) worked out at 76%.

In the case of `CCCCCCCCCCOc1ccc(C(=O)c2cccc(C(=O)O)c2)cc1CCC(=O)O` [Example 22, 5-(3-Carboxybenzoyl)-2-(decyloxy)benzenepropanoic acid], the antagonist dissociation constant (Kb) on LTD4 receptors was 1950 nM. For the same compound, the inhibition at 0.1 µM was determined as 83% in test [1] and 17% in test [2] (setting [5]). Also, in test [2] (setting [3]), the inhibition at 10 µM turned out to be 95%. Also, the inhibition at 1 µM in test [2] (setting [4]) is 62%.

In the case of `CCCCCCCCCCOc1ccc(C(=O)c2cccc(C(=O)O)c2)c(CC(=O)O)c1` [Example 21, 2-(3-Carboxybenzoyl)-5-(decyloxy)benzeneacetic acid], at LTD4 receptors, the Kb is 1410 nM. In addition, the inhibition at 10 µM in test [2] (setting [3]) amounted to 74%. The inhibition at 1 µM in test [2] (setting [4]) is 23%.

Take `CCCCCCCCCCOc1ccc(C(=O)c2cccc(C(=O)O)c2)cc1CCc1nnn[nH]1` [Example 28, 3-{4-(Decyloxy)-3-[2-(1H-tetrazol-5-yl)ethyl]benzoyl}benzoic acid]: the Kb at LTD4 receptors is 324 nM. For the same compound, the inhibition at 10 µM in test [2] (setting [3]) stood at 96%. In test [2] (setting [4]), the inhibition at 1 µM is 55%.

Turning to `CCCCCCCCCCOc1ccc(C(=O)c2cccc(-c3nnn[nH]3)c2)cc1CC(=O)O` [Example 24, 2-(Decyloxy)-5-[3-(1H-tetrazol-5-yl)benzoyl]benzeneacetic acid], the Kb at LTD4 receptors was 398 nM. In addition, the inhibition at 10 µM in test [2] (setting [3]) came to 93%. Also, in test [2] (setting [4]), the inhibition at 1 µM was determined as 28%.

Take `CCCCCCCCCCOc1ccc(C(=NO)c2cccc(C(=O)O)c2)cc1CCC(=O)O` [Example 52, 5-[(3-Carboxyphenyl)(hydroxyimino)methyl]-2-(decyloxy)benzenepropanoic acid]: the Kb on LTD4 receptors was 661 nM. For the same compound, the figures for the inhibition at 10 µM in test [1] and in test [2] were 94% and 92%, respectively. Moreover, the values for the inhibition at 1 µM in test [1] and in test [2] (setting [4]) were 89% and 61%, respectively. In addition, the values for the inhibition at 0.1 µM in test [1] and in test [2] (setting [5]) were 38% and 17%, respectively.
